In paper PMC9234961 (Journal of Medicinal Chemistry, 2022):
Read-outs that look alike come from different tables or passages of the source.

How the values were obtained:
[1] = target: kinases (468) (Homo sapiens, UniProt Q99558); details: NIK (MAP3K14); 1000 nM
[2] = target: kinases (468) (Homo sapiens, UniProt P10721); details: 1000 nM
[3] = target: kinases (468) (Homo sapiens, UniProt Q13237); details: PRKG2; 1000 nM
[4] = target: kinases (468) (Homo sapiens, UniProt O94806); details: PRKD3; 1000 nM
[5] = target: kinases (468) (Homo sapiens, UniProt Q96BR1); details: kinase SGK3 (Entrez SGK3); compound concentration 1000 nM
[6] = target: kinases (468) (Homo sapiens, UniProt P10721, V559D/V654A); details: KIT(V559D,V654A); 1000 nM
[7] = target: kinases (468) (Homo sapiens, UniProt P10721, V559D); details: KIT(V559D); 1000 nM
[8] = target: kinases (468) (Homo sapiens, UniProt O60285); details: ARK5 (NUAK1); 1000 nM
[9] = target: kinases (468) (Homo sapiens, UniProt P29317); details: EPHA2; 1000 nM
[10] = target: kinases (468) (Homo sapiens, UniProt Q9H2X6); details: HIPK2; 1000 nM
[11] = target: kinases (468) (Homo sapiens, UniProt Q9Y2I7); details: PIKFYVE; 1000 nM
[12] = target: kinases (468) (Homo sapiens, UniProt P42336, H1047Y); details: PIK3CA(H1047Y); 1000 nM
[13] = target: kinases (468) (Homo sapiens, UniProt Q56UN5); details: kinase YSK4 (Entrez MAP3K19); compound concentration 1000 nM
[14] = target: kinases (468) (Homo sapiens, UniProt P08631); details: HCK; 1000 nM
[15] = target: kinases (468) (Homo sapiens, UniProt Q99683); details: ASK1 (MAP3K5); 1000 nM
[16] = target: kinases (468) (Homo sapiens, UniProt Q9BUB5); details: MKNK1; 1000 nM
[17] = target: kinases (468) (Homo sapiens, UniProt P10721, D816H); details: KIT(D816H); 1000 nM
[18] = target: kinases (468) (Homo sapiens, UniProt Q9UEE5); details: DRAK1 (STK17A); 1000 nM
[19] = target: kinases (468) (Homo sapiens, UniProt O00444); details: PLK4; 1000 nM
[20] = target: kinases (468) (Homo sapiens, UniProt Q9H1R3); details: MYLK2; 1000 nM
[21] = target: kinases (468) (Homo sapiens, UniProt Q14004); details: CDC2L5 (CDK13); 1000 nM
[22] = target: kinases (468) (Homo sapiens, UniProt P08922); details: kinase ROS1 (Entrez ROS1); compound concentration 1000 nM
[23] = target: kinases (468) (Homo sapiens, UniProt P08069); details: IGF1R; 1000 nM
[24] = target: kinases (468) (Homo sapiens, UniProt Q9UHD2); details: kinase TBK1 (Entrez TBK1); compound concentration 1000 nM
[25] = target: kinases (468) (Homo sapiens, UniProt Q9BX84); details: kinase TRPM6 (Entrez TRPM6); compound concentration 1000 nM
[26] = target: kinases (468) (Homo sapiens, UniProt O60331); details: PIP5K1C; 1000 nM
[27] = target: kinases (468) (Homo sapiens, UniProt O75716); details: kinase STK16 (Entrez STK16); compound concentration 1000 nM
[28] = target: kinases (468) (Homo sapiens, UniProt Q15208); details: NDR1 (STK38); 1000 nM
[29] = target: kinases (468) (Homo sapiens, UniProt Q59H18); details: kinase TNNI3K (Entrez TNNI3K); compound concentration 1000 nM
[30] = target: kinases (468) (Homo sapiens, UniProt O14965); details: AURKA; 1000 nM
[31] = target: kinases (468) (Homo sapiens, UniProt Q86V86); details: PIM3; 1000 nM
[32] = target: kinases (468) (Homo sapiens, UniProt Q04771); details: ACVR1; 1000 nM
[33] = target: kinases (468) (Homo sapiens, UniProt Q15759); details: p38-beta (MAPK11); 1000 nM
[34] = target: kinases (468) (Homo sapiens, UniProt P35916); details: FLT4; 1000 nM

Sequence of kinases (468) (Homo sapiens, UniProt P10721) (P10721 26-976): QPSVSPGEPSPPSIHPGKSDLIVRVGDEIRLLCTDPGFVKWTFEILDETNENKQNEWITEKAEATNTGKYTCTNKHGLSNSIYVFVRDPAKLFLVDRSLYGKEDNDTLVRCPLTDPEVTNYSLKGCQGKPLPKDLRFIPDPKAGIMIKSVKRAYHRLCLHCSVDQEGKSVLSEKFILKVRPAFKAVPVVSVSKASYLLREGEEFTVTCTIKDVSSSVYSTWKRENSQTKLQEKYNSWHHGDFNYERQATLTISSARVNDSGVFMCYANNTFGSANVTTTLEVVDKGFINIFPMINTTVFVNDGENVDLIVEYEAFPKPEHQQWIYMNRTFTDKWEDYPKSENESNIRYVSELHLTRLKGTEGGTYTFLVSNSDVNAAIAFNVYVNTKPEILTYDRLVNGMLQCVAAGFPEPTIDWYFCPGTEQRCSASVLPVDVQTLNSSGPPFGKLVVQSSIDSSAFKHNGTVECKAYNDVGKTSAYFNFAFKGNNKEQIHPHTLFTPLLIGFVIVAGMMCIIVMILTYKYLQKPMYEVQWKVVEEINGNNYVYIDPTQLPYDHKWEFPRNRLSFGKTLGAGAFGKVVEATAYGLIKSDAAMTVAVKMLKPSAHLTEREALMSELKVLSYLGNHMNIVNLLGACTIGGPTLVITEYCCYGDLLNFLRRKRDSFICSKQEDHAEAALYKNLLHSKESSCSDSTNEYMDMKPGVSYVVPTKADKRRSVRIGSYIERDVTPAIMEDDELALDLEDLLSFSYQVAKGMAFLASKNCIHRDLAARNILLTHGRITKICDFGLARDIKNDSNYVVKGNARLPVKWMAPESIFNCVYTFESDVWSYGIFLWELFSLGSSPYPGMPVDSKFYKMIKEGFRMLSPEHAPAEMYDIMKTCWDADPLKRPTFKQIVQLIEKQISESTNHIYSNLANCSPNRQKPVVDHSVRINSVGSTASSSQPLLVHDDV
Sequence of kinases (468) (Homo sapiens, UniProt P08922) (P08922 28-2347): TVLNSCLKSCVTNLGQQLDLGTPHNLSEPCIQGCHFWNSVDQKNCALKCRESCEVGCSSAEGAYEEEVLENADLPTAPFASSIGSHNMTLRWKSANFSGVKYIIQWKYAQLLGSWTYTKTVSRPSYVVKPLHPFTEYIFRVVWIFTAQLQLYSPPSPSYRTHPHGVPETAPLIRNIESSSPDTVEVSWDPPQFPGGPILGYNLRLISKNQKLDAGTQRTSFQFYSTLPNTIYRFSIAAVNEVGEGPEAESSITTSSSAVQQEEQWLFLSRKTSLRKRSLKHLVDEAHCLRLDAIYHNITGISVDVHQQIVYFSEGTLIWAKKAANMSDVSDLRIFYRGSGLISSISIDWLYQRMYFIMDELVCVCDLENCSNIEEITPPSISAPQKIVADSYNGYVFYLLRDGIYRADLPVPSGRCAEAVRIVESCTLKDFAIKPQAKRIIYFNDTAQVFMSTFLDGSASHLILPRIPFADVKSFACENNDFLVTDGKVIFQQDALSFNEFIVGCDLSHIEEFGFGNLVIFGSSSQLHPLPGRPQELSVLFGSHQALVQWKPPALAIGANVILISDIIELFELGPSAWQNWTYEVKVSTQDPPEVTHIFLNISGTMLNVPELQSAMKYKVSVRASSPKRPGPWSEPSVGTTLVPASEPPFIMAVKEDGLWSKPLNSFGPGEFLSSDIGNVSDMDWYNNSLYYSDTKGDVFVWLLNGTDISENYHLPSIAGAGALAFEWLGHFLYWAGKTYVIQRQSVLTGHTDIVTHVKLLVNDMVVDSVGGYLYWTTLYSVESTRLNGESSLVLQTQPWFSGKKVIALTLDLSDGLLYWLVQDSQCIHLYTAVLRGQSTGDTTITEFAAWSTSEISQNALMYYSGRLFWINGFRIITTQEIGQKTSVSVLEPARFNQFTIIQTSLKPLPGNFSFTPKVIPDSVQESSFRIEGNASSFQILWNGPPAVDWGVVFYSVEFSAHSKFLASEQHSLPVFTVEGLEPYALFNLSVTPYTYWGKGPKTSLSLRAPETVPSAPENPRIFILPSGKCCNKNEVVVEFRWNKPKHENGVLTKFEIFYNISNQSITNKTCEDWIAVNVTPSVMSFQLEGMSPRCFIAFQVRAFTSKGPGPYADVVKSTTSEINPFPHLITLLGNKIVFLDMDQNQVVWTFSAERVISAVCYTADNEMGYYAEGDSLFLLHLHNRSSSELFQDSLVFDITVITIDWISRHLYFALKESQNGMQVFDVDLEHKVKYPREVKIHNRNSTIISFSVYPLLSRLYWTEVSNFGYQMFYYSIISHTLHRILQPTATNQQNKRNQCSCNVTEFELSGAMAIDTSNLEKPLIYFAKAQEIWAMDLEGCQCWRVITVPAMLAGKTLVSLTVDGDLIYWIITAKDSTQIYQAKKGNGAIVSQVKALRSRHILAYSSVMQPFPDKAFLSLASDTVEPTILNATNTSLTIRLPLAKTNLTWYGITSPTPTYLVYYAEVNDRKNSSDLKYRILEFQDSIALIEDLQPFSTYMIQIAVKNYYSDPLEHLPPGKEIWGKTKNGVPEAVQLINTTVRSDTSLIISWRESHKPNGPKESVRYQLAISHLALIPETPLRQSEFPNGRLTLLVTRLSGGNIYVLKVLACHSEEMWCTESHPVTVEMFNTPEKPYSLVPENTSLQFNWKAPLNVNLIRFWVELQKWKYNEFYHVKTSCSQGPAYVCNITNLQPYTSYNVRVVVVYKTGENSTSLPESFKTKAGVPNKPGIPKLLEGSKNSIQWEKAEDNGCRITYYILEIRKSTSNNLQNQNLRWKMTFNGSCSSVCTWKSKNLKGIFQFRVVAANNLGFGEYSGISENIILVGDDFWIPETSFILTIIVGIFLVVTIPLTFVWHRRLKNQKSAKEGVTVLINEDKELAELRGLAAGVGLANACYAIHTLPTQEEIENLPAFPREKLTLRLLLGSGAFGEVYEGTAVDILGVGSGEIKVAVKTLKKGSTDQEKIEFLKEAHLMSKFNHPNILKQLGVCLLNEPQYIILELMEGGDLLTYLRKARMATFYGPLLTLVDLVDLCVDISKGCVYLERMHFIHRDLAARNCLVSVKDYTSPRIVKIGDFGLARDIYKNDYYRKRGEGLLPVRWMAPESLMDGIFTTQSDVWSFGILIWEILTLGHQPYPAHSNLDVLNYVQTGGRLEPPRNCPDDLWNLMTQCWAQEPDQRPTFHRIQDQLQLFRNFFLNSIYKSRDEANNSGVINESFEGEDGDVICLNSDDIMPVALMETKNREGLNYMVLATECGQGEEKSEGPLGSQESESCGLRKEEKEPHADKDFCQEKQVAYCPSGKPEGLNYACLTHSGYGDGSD
Sequence of kinases (468) (Homo sapiens, UniProt Q15208) (Q15208 whole entry): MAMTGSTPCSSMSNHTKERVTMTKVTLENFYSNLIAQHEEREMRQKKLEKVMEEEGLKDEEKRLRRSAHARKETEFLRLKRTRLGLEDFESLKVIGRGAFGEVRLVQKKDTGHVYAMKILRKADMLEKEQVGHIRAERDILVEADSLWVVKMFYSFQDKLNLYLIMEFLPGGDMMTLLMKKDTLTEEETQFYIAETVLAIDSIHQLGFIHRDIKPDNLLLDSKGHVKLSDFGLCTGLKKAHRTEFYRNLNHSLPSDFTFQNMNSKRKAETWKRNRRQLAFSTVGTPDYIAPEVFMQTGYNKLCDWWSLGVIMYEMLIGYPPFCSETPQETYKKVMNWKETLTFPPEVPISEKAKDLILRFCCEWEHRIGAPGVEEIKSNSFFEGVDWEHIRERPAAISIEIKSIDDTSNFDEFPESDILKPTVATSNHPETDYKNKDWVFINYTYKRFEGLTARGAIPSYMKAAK
Sequence of kinases (468) (Homo sapiens, UniProt P29317) (P29317 24-976): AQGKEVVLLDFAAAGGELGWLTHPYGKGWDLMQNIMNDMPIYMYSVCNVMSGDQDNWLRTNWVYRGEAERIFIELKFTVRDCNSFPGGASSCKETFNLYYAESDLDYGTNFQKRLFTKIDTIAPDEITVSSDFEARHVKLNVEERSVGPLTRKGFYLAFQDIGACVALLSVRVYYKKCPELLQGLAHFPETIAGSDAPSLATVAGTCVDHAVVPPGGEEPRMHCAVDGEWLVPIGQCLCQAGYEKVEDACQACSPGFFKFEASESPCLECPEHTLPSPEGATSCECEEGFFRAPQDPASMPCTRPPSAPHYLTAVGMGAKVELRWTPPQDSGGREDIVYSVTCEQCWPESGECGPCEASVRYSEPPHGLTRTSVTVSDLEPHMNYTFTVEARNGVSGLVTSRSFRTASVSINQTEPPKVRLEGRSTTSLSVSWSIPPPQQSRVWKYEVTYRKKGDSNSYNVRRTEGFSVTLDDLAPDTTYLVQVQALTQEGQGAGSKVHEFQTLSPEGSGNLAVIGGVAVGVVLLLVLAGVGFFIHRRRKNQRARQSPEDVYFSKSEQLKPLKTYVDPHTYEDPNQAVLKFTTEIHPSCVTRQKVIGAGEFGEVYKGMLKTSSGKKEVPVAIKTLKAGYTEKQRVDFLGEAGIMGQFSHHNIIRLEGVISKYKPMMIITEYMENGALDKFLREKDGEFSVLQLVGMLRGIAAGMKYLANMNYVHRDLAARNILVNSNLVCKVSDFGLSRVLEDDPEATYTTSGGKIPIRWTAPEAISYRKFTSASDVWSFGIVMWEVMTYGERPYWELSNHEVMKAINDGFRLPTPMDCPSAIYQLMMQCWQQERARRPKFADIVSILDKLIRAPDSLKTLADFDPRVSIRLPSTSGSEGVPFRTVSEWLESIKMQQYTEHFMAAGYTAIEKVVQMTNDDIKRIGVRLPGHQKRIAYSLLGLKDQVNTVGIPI
Sequence of kinases (468) (Homo sapiens, UniProt O75716) (O75716 whole entry): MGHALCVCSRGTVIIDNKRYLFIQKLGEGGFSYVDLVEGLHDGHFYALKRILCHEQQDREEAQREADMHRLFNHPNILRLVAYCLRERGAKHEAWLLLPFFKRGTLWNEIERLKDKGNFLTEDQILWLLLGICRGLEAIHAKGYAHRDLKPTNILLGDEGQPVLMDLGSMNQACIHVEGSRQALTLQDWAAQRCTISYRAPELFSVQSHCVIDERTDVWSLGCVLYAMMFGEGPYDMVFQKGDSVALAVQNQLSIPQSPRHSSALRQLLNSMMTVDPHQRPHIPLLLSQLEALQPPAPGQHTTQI
Sequence of kinases (468) (Homo sapiens, UniProt P10721, V559D) (P10721 26-976 V559D): as the sequence (P10721 26-976) above, with V534D counted along it
Sequence of kinases (468) (Homo sapiens, UniProt P10721, V559D/V654A) (P10721 26-976 V559D/V654A): as the sequence (P10721 26-976) above, with V534D, V629A counted along it

## C[C@H]1C[C@@H](O)CN(c2ncc(Cl)c(Nc3ccc4c(c3)c3c(c(=O)n4C)OCC(F)(F)[C@H](C4CC4)N3)n2)C1 [CCT373566_9A]
[1]
  Percent Control: 83%
[2]; KIT-autoinhibited
  Percent Control: 90%
[2]; KIT
  Percent Control: 100%
[3]
  Percent Control: 100%
[4]
  Percent Control: 75%
[5]
  Percent Control: 99%
[6]
  Percent Control: 98%
[7]
  Percent Control: 100%
[8]
  Percent Control: 98%
[9]
  Percent Control: 99%
[10]
  Percent Control: 100%
[11]
  Percent Control: 83%
[12]
  Percent Control: 94%
[13]
  Percent Control: 100%
[14]
  Percent Control: 98%
[15]
  Percent Control: 100%
[16]
  Percent Control: 91%
[17]
  Percent Control: 87%
[18]
  Percent Control: 99%
[19]
  Percent Control: 100%
[20]
  Percent Control: 100%
[21]
  Percent Control: 99%
[22]
  Percent Control: 100%
[23]
  Percent Control: 100%
[24]
  Percent Control: 100%
[25]
  Percent Control: 95%
[26]
  Percent Control: 91%
[27]
  Percent Control: 88%
[28]
  Percent Control: 100%
[29]
  Percent Control: 100%
[30]
  Percent Control: 100%
[31]
  Percent Control: 100%
[32]
  Percent Control: 85%
[33]
  Percent Control: 100%
[34]
  Percent Control: 100%
